Data taken from patent US10294234B2, “HIV inhibitor compounds” (priority 2017, dated 2019).

Tested on: HIV-1 (IIIB) in MT-4 cells
Experiment: MT-4 HIV assay
Format: cell-based
Settings: Human immunodeficiency virus 1, MT4, 120 h; HIV-1 (IIIB), MT-4 cells, 5 days, Cell Titer Glo; read-out: EC50
Procedure, shortened: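 Antiviral activity was read by Cell Titer Glo after a 5-day, 37 °C culture of MT-4 cells pre-infected with a 1:250 dilution of HIV-1 (IIIB). Compounds were tested as threefold dilution series in complete RPMI. Controls were no drug, mock infection and 5 uM AZT.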

Compound | EC50
COC(=O)N[C@H](C(=O)N[C@@H](Cc1ccc(C#Cc2ccc(N3CCN(C4COC4)CC3)nc2)cc1)[C@@H](O)CN(Cc1c(F)cc(-c2ccn(C3CC3)n2)cc1F)NC(=O)[C@@H](NC(=O)OC)C(C)(C)C(F)(F)F)C(C)(C)C(F)(F)F [Example 92, Methyl ((5S,8S,9S,14S)-11-(4-(1-cyclopropyl-1H-pyrazol-3-yl)-2,6-difluorobenzyl)-16,16,16-trifluoro-9-hydroxy-15,15-dimethyl-8-(4-((6-(4-(oxetan-3-yl)piperazin-1-yl)pyridin-3-yl)ethynyl)benzyl)-3,6,13-trioxo-5-(1,1,1-trifluoro-2-methylpropan-2-yl)-2-oxa-4,7,11,12-tetraazahexadecan-14-yl)carbamate] | 3.72 nM
COC(=O)N[C@H](C(=O)NN(Cc1c(F)cc(-c2ccn(CC(F)F)n2)cc1F)C[C@H](O)[C@H](Cc1ccc(-c2cnc(N3CC4CCC(C3)N4C3COC3)nc2)cc1)NC(=O)[C@@H](NC(=O)OC)C(C)(C)C(F)(F)F)C(C)(C)C [Example 193, Methyl ((5S,8S,9S,14S)-11-(4-(1-(2,2-difluoroethyl)-1H-pyrazol-3-yl)-2,6-difluorobenzyl)-9-hydroxy-15,15-dimethyl-8-(4-(2-(8-(oxetan-3-yl)-3,8-diazabicyclo[3.2.1]octan-3-yl)pyrimidin-5-yl)benzyl)-3,6,13-trioxo-5-(1,1,1-trifluoro-2-methylpropan-2-yl)-2-oxa-4,7,11,12-tetraazahexadecan-14-yl)carbamate] | 2.78 nM
COC(=O)N[C@H](C(=O)N[C@@H](Cc1ccc(C#Cc2ccc(N3CCN(C4COC4)CC3)nc2)cc1)[C@@H](O)CN(Cc1ccc(-c2cnn(C(F)F)c2)cc1)NC(=O)[C@@H](NC(=O)OC)C(C)(C)C(F)(F)F)C(C)(C)C(F)(F)F [Example 113, Methyl ((5S,8S,9S,14S)-11-(4-(1-(difluoromethyl)-1H-pyrazol-4-yl)benzyl)-16,16,16-trifluoro-9-hydroxy-15,15-dimethyl-8-(4-((6-(4-(oxetan-3-yl)piperazin-1-yl)pyridin-3-yl)ethynyl)benzyl)-3,6,13-trioxo-5-(1,1,1-trifluoro-2-methylpropan-2-yl)-2-oxa-4,7,11,12-tetraazahexadecan-14-yl)carbamate] | 6.01 nM
COC(=O)N[C@H](C(=O)N[C@@H](Cc1ccc(C#Cc2ccc(N3CC4CC(CN(c5ccccn5)C4)C3)nc2)cc1)[C@@H](O)CN(Cc1c(F)cc(-c2cnn(C(F)F)c2)cc1F)NC(=O)[C@@H](NC(=O)OC)C(C)(C)C(F)(F)F)C(C)(C)C(F)(F)F [Example 66, Methyl ((5S,8S,9S,14S)-11-(4-(1-(difluoromethyl)-1H-pyrazol-4-yl)-2,6-difluorobenzyl)-16,16,16-trifluoro-9-hydroxy-15,15-dimethyl-3,6,13-trioxo-8-(4-((6-(7-(pyridin-2-yl)-3,7-diazabicyclo[3.3.1]nonan-3-yl)pyridin-3-yl)ethynyl)benzyl)-5-(1,1,1-trifluoro-2-methylpropan-2-yl)-2-oxa-4,7,11,12-tetraazahexadecan-14-yl)carbamate] | 14.5 nM
COC(=O)N[C@H](C(=O)NN(Cc1c(F)cc(-c2ccn(C3CC3)n2)cc1F)C[C@H](O)[C@H](Cc1ccc(C#Cc2ccc(N3CC4CCC(C3)N4C3COC3)nc2)cc1)NC(=O)[C@@H](NC(=O)OC)C(C)(C)C(F)(F)F)C(C)(C)C [Example 5, methyl ((5S,8S,9S,14S)-11-(4-(1-cyclopropyl-1H-pyrazol-3-yl)-2,6-difluorobenzyl)-9-hydroxy-15,15-dimethyl-8-(4-((6-(8-(oxetan-3-yl)-3,8-diazabicyclo[3.2.1]octan-3-yl)pyridin-3-yl)ethynyl)benzyl)-3,6,13-trioxo-5-(1,1,1-trifluoro-2-methylpropan-2-yl)-2-oxa-4,7,11,12-tetraazahexadecan-14-yl)carbamate] | 4.37 nM
COC(=O)N[C@H](C(=O)NN(Cc1c(F)cc(-c2ccn(CC(F)F)n2)cc1F)C[C@H](O)[C@H](Cc1ccc(C#Cc2ccc(N3C[C@H]4C[C@@H]3CN4C3COC3)nc2)cc1)NC(=O)[C@@H](NC(=O)OC)C(C)(C)C(F)(F)F)C(C)(C)C [Example 8, methyl ((5S,8S,9S,14S)-11-(4-(1-(2,2-difluoroethyl)-1H-pyrazol-3-yl)-2,6-difluorobenzyl)-9-hydroxy-15,15-dimethyl-8-(4-((6-((1R,4R)-5-(oxetan-3-yl)-2,5-diazabicyclo[2.2.1]heptan-2-yl)pyridin-3-yl)ethynyl)benzyl)-3,6,13-trioxo-5-(1,1,1-trifluoro-2-methylpropan-2-yl)-2-oxa-4,7,11,12-tetraazahexadecan-14-yl)carbamate] | 2.46 nM
COC(=O)N[C@H](C(=O)NN(Cc1ccc(-c2cnn(C(F)F)c2)cc1)C[C@H](O)[C@H](Cc1ccc(C#Cc2ccc(N3CC4CCC(C3)N4C3COC3)nc2)cc1)NC(=O)[C@@H](NC(=O)OC)C(C)(C)C(F)(F)F)C(C)(C)C [Example 243, methyl ((5S,8S,9S,14S)-11-(4-(1-(difluoromethyl)-1H-pyrazol-4-yl)benzyl)-9-hydroxy-15,15-dimethyl-8-(4-((6-(8-(oxetan-3-yl)-3,8-diazabicyclo[3.2.1]octan-3-yl)pyridin-3-yl)ethynyl)benzyl)-3,6,13-trioxo-5-(1,1,1-trifluoro-2-methylpropan-2-yl)-2-oxa-4,7,11,12-tetraazahexadecan-14-yl)carbamat] | 5.32 nM
COC(=O)N[C@H](C(=O)N[C@@H](Cc1ccc(C#Cc2ccc(N3CC4CCC(C3)N4C3COC3)nc2C)cc1)[C@@H](O)CN(Cc1c(F)cc(-c2ccn(C(F)F)n2)cc1F)NC(=O)[C@@H](NC(=O)OC)C(C)(C)C(F)(F)F)C(C)(C)C(F)(F)F [Example 152, Methyl ((5S,8S,9S,14S)-11-(4-(1-(difluoromethyl)-1H-pyrazol-3-yl)-2,6-difluorobenzyl)-16,16,16-trifluoro-9-hydroxy-15,15-dimethyl-8-(4-((2-methyl-6-(8-(oxetan-3-yl)-3,8-diazabicyclo[3.2.1]octan-3-yl)pyridin-3-yl)ethynyl)benzyl)-3,6,13-trioxo-5-(1,1,1-trifluoro-2-methylpropan-2-yl)-2-oxa-4,7,11,12-tetraazahexadecan-14-yl)carbamate] | 6.16 nM
COC(=O)N[C@H](C(=O)N[C@@H](Cc1ccc(C#Cc2cnc(N3CC4CC(C3)N4C3COC3)nc2)cc1)[C@@H](O)CN(Cc1c(F)cc(-c2ccn(C(F)F)n2)cc1F)NC(=O)[C@@H](NC(=O)OC)C(C)(C)C(F)(F)F)C(C)(C)C(F)(F)F [Example 42, Methyl ((5S,8S,9S,14S)-11-(4-(1-(difluoromethyl)-1H-pyrazol-3-yl)-2,6-difluorobenzyl)-16,16,16-trifluoro-9-hydroxy-15,15-dimethyl-8-(4-((2-(6-(oxetan-3-yl)-3,6-diazabicyclo[3.1.1]heptan-3-yl)pyrimidin-5-yl)ethynyl)benzyl)-3,6,13-trioxo-5-(1,1,1-trifluoro-2-methylpropan-2-yl)-2-oxa-4,7,11,12-tetraazahexadecan-14-yl)carbamate] | 3.18 nM
COC(=O)N[C@H](C(=O)N[C@@H](Cc1ccc(C#Cc2ccc(N3CC4CCC(C3)N4[C@H]3CCOC3)nc2)cc1)[C@@H](O)CN(Cc1c(F)cc(-c2ccn(C(F)F)n2)cc1F)NC(=O)[C@@H](NC(=O)OC)C(C)(C)C(F)(F)F)C(C)(C)C(F)(F)F [Example 142, Methyl ((5S,8S,9S,14S)-11-(4-(1-(difluoromethyl)-1H-pyrazol-3-yl)-2,6-difluorobenzyl)-16,16,16-trifluoro-9-hydroxy-15,15-dimethyl-3,6,13-trioxo-8-(4-((6-(8-((S)-tetrahydrofuran-3-yl)-3,8-diazabicyclo[3.2.1]octan-3-yl)pyridin-3-yl)ethynyl)benzyl)-5-(1,1,1-trifluoro-2-methylpropan-2-yl)-2-oxa-4,7,11,12-tetraazahexadecan-14-yl)carbamate] | 8.78 nM
COC(=O)N[C@H](C(=O)N[C@@H](Cc1ccc(-c2cnc(N3CC4CCC(C3)N4C3COC3)nc2)cc1)[C@@H](O)CN(Cc1c(F)cc(-c2cn(C(F)F)cn2)cc1F)NC(=O)[C@@H](NC(=O)OC)C(C)(C)C(F)(F)F)C(C)(C)C(F)(F)F [Example 189, Methyl ((5S,8S,9S,14S)-11-(4-(1-(difluoromethyl)-1H-imidazol-4-yl)-2,6-difluorobenzyl)-16,16,16-trifluoro-9-hydroxy-15,15-dimethyl-8-(4-(2-(8-(oxetan-3-yl)-3,8-diazabicyclo[3.2.1]octan-3-yl)pyrimidin-5-yl)benzyl)-3,6,13-trioxo-5-(1,1,1-trifluoro-2-methylpropan-2-yl)-2-oxa-4,7,11,12-tetraazahexadecan-14-yl)carbamate] | 5.47 nM
COC(=O)N[C@H](C(=O)N[C@@H](Cc1ccc(C#Cc2cnc(N3CC4CCC(C3)N4C3COC3)nc2)cc1)[C@@H](O)CN(Cc1ccc(-c2ccn(C(F)F)n2)cc1F)NC(=O)[C@@H](NC(=O)OC)C(C)(C)C(F)(F)F)C(C)(C)C(F)(F)F [Example 118, Methyl ((5S,8S,9S,14S)-11-(4-(1-(difluoromethyl)-1H-pyrazol-3-yl)-2-fluorobenzyl)-16,16,16-trifluoro-9-hydroxy-15,15-dimethyl-8-(4-((2-(8-(oxetan-3-yl)-3,8-diazabicyclo[3.2.1]octan-3-yl)pyrimidin-5-yl)ethynyl)benzyl)-3,6,13-trioxo-5-(1,1,1-trifluoro-2-methylpropan-2-yl)-2-oxa-4,7,11,12-tetraazahexadecan-14-yl)carbamate] | 10.6 nM
